The text below walks through data of ChEMBL document CHEMBL1142810, “Discovery of a potent and selective 5-ht5A receptor antagonist by high-throughput chemistry” (Bioorg Med Chem Lett, 2005).

The structures appear in SMILES notation. Some results are limits rather than exact numbers.

The target in data set [1] is T1, 5-hydroxytryptamine receptor 5A (Homo sapiens, UniProt P47898). Kind of data set: 5-CT-induced stimulation of [35S]GTP-gamma-S, binding to 5-Hydroxytryptamine receptor 5A expressed in HEK 293 cells with compound at 1 uM. The following applies: HEK293. The format is functional, cell-based.
T1 sequence (P47898 whole entry): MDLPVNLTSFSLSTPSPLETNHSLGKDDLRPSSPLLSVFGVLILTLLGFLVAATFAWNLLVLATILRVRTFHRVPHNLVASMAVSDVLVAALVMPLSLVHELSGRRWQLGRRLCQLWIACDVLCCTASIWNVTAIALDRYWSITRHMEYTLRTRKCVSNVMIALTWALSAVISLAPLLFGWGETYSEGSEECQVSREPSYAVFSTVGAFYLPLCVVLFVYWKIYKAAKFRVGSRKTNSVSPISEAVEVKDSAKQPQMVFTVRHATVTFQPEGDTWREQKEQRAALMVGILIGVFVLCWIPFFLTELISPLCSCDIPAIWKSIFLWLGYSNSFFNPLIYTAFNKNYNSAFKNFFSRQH
For data set [2], the target named is T2, 5-hydroxytryptamine receptor 1F (Homo sapiens, UniProt P30939).
T2 sequence (P30939 whole entry): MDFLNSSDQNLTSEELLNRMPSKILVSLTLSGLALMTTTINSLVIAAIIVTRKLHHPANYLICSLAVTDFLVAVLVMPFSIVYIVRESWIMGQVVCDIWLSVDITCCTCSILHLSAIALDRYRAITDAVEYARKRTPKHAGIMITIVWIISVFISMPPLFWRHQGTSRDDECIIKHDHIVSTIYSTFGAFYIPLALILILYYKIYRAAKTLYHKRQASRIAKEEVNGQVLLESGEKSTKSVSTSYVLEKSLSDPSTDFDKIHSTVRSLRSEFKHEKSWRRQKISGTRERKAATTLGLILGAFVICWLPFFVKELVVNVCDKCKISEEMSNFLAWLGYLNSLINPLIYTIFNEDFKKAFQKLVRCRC
Nature of the data set: Binding affinity towards human 5-hydroxytryptamine receptor 1F expressed in HEK 293 cells using the radioligand [3H]5-HT. The format is cell-based, HEK293.

In data set [3] the target is T3, D(4) dopamine receptor (Homo sapiens, UniProt P21917).
T3 sequence (P21917 whole entry): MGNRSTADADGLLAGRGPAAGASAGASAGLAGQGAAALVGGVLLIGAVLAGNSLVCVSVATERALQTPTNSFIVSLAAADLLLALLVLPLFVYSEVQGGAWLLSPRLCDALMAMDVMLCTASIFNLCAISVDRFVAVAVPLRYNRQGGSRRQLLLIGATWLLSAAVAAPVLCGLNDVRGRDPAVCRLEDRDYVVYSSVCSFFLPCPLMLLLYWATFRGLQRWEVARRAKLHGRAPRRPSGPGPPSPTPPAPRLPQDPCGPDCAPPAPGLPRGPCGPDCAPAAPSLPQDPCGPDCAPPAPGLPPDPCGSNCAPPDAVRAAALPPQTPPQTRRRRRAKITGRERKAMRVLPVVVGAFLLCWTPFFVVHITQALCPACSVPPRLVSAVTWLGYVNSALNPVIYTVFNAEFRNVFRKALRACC
Kind of data set: Binding affinity towards human dopamine receptor D4 expressed in CHO cells using the radioligand [125I]iodosulpiride. The format is cell-based.

Data set [4] deals with 5-hydroxytryptamine receptor 2B (Homo sapiens, UniProt P41595). Kind of data set: Binding affinity towards human 5-hydroxytryptamine receptor 2B expressed in HEK 293 cells using the radioligand [3H]5-HT. It counts as cell-based, HEK293.
Chain of 5-hydroxytryptamine receptor 2B (P41595 whole entry): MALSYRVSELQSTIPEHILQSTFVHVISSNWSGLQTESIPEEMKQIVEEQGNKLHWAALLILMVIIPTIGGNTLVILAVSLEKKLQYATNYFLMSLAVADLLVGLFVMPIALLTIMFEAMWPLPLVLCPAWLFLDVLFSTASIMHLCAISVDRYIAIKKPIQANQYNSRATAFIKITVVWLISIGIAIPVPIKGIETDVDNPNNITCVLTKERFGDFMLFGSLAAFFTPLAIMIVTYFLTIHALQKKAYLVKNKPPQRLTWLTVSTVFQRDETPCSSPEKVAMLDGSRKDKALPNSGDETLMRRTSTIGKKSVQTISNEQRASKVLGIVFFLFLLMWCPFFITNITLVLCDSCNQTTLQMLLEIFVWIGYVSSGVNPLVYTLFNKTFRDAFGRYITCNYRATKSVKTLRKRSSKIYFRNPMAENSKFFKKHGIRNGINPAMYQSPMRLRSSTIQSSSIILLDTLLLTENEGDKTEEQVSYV
Data set [5] deals with T1, 5-hydroxytryptamine receptor 5A. Kind of data set: Binding affinity towards human 5-hydroxytryptamine receptor 5A expressed in CHO cells using the radioligand [3H]LSD. The format is cell-based.
Data set [6] deals with T4, 5-hydroxytryptamine receptor 1A (Homo sapiens, UniProt P08908).
T4 sequence (P08908 whole entry): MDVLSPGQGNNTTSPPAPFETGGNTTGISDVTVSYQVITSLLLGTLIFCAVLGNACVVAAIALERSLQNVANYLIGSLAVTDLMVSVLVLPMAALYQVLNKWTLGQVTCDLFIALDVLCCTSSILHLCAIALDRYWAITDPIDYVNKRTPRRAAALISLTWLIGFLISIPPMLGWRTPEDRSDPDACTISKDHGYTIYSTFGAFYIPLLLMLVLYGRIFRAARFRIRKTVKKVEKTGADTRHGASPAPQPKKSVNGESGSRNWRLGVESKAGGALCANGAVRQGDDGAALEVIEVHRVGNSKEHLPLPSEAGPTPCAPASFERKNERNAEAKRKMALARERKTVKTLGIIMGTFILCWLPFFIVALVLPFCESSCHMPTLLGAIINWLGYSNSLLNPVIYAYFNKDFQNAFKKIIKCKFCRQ
Nature of the data set: Binding affinity towards human 5-hydroxytryptamine receptor 1A expressed in HEK 293 cells using the radioligand [3H]8-OH-DPAT. The format is cell-based, HEK293.

Data set [7] addresses T5, Alpha-1B adrenergic receptor (Homo sapiens, UniProt P35368).
T5 sequence (P35368 whole entry): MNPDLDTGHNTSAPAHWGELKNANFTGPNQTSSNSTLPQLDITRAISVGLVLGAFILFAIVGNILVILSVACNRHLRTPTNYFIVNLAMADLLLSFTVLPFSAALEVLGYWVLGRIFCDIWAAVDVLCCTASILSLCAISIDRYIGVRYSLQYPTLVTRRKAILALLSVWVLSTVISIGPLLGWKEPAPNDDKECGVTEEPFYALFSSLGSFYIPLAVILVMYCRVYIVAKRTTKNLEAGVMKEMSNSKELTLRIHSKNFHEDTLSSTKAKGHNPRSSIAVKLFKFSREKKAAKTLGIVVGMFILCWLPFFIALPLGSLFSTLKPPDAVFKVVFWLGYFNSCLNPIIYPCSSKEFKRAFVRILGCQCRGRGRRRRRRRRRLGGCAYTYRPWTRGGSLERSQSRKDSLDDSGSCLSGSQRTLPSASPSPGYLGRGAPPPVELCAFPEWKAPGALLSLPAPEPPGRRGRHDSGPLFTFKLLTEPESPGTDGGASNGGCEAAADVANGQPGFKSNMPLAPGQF
Kind of data set: Binding affinity towards human alpha-1B-adrenergic receptor expressed in CHO cells using the radioligand [3H]prazosin. It counts as cell-based.

In data set [8] the target is 5-hydroxytryptamine receptor 1E (Homo sapiens, UniProt P28566). Nature of the data set: Binding affinity towards human 5-hydroxytryptamine receptor 1E expressed in HEK 293 cells using the radioligand [3H]5-HT. It counts as cell-based, HEK293.
Chain of 5-hydroxytryptamine receptor 1E (P28566 whole entry): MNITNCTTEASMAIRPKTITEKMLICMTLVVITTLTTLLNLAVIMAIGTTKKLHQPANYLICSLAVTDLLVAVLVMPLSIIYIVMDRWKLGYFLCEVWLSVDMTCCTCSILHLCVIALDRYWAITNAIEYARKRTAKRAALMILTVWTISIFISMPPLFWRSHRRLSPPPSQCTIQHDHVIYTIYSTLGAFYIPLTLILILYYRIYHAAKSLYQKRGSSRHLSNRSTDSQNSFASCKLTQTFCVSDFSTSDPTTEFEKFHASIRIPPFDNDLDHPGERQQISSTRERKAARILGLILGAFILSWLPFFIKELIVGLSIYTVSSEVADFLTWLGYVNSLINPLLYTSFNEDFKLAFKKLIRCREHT
Data set [9] concerns the target 5-hydroxytryptamine receptor 6 (Homo sapiens, UniProt P50406). Kind of data set: Binding affinity towards human 5-hydroxytryptamine receptor 6 expressed in HeLa cells using the radioligand [3H]LSD. It counts as cell-based.
The target of data set [10] is D(2) dopamine receptor (Homo sapiens, UniProt P14416). Kind of data set: Binding affinity towards human dopamine receptor D2 expressed in CHO cells using the radioligand [125I]iodosulpiride. The format is cell-based.
Chain of D(2) dopamine receptor (P14416 whole entry): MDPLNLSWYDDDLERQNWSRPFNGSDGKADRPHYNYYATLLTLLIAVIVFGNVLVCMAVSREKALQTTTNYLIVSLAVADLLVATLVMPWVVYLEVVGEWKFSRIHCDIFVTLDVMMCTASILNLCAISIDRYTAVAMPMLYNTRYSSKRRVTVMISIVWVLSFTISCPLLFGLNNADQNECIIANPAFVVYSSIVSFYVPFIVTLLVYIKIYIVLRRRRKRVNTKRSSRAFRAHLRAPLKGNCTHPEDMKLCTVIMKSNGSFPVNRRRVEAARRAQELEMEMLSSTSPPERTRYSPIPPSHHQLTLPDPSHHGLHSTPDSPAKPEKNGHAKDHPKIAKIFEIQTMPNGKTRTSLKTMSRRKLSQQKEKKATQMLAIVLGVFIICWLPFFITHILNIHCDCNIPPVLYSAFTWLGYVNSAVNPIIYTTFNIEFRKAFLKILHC
The target of data set [11] is T6, 5-hydroxytryptamine receptor 2C (Homo sapiens, UniProt P28335).
T6 sequence (P28335 whole entry): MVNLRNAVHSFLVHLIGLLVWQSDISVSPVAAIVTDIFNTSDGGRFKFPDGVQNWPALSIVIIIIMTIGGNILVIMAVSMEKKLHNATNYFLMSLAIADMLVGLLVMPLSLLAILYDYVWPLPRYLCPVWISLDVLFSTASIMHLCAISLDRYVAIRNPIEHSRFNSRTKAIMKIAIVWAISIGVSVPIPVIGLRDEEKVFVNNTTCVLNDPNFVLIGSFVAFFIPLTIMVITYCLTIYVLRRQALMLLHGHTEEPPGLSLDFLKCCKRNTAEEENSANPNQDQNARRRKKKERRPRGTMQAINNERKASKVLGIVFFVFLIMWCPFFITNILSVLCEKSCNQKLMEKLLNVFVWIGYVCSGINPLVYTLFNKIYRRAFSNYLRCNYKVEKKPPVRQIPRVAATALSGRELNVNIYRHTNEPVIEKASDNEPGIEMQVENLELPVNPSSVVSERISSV
Nature of the data set: Binding affinity towards human 5-hydroxytryptamine receptor 2C expressed in HEK 293 cells using the radioligand [3H]mesulergine. It counts as cell-based, HEK293.

Data set [12] concerns the target 5-hydroxytryptamine receptor 1D (Homo sapiens, UniProt P28221). Nature of the data set: Binding affinity towards human 5-hydroxytryptamine receptor 1D expressed in CHO cells using the radioligand [3H]5-HT. It counts as cell-based.
In data set [13] the target is 5-hydroxytryptamine receptor 2A (Homo sapiens, UniProt P28223). Nature of the data set: Binding affinity towards human 5-hydroxytryptamine receptor 2A expressed in HEK 293 cells using the radioligand [3H]ketanserin. The format is cell-based, HEK293.
Chain of 5-hydroxytryptamine receptor 2A (P28223 whole entry): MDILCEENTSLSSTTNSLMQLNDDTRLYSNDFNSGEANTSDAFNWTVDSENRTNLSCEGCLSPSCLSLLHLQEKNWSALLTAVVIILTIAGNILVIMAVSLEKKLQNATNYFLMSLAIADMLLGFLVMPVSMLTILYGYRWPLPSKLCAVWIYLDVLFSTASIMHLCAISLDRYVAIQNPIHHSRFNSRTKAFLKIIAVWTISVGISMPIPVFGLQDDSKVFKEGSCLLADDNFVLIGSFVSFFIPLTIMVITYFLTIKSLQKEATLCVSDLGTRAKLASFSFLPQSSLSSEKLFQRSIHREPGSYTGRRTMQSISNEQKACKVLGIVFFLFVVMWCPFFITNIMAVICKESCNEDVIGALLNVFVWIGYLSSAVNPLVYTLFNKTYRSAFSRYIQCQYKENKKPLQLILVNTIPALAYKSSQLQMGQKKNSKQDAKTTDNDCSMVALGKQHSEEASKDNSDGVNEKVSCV
Data set [14] has as its target D(3) dopamine receptor (Homo sapiens, UniProt P35462). Kind of data set: Binding affinity towards human dopamine receptor D3 expressed in CHO cells using the radioligand [125I]iodosulpiride. It counts as cell-based.
Data set [15] has as its target 5-hydroxytryptamine receptor 1B (Homo sapiens, UniProt P28222). Nature of the data set: Binding affinity towards human 5-hydroxytryptamine receptor 1B expressed in CHO cells using the radioligand [3H]5-HT. The format is cell-based.
The target in data set [16] is 5-hydroxytryptamine receptor 7 (Homo sapiens, UniProt P34969). Kind of data set: Binding affinity towards human 5-hydroxytryptamine receptor 7 expressed in HEK 293 cells using the radioligand [3H]5-CT. The format is cell-based, HEK293.
Chain of 5-hydroxytryptamine receptor 7 (P34969 whole entry): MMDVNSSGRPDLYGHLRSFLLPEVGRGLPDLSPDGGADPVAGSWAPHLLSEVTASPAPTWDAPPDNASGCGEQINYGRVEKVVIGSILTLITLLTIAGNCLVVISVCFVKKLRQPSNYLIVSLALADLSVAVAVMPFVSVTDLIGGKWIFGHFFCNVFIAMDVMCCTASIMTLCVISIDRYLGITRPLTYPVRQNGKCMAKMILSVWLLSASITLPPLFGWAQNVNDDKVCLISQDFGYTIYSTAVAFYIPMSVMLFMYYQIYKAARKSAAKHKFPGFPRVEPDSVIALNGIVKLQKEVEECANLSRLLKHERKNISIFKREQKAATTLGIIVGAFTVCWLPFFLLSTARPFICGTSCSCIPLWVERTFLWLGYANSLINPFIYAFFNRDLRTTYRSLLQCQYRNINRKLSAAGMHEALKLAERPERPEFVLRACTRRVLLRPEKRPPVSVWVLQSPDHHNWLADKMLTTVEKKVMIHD
Data set [17] can be described thus: Blood clearance in guinea pig at a dose of 1 mg/kg upon intravenous administration. It counts as ADME, organism-based, Cavia porcellus. Further details: dose 1 mg/kg, route intravenous.
Data set [18] addresses Sodium-dependent serotonin transporter (Homo sapiens, UniProt P31645). Nature of the data set: Binding affinity towards human serotonin transporter expressed in LLCPK cells using the radioligand [3H]citalopram. It counts as cell-based.
Data set [19] is described as follows: Half life in guinea pig at a dose of 3 mg/kg upon oral administration. It counts as ADME, organism-based, Cavia porcellus. On the set-up: dose 3 mg/kg, route oral. The following applies: in vivo.
Data set [20] is described as follows: Half life in guinea pig at a dose of 3 mg/kg upon subcutaneous administration. It counts as ADME, organism-based, Cavia porcellus. On the set-up: dose 3 mg/kg, route subcutaneous. Particulars: in vivo, sc.
Data set [21] in a line: Bioavailability in guinea pig at a dose of 3 mg/kg upon oral administration. Particulars: in vivo. The format is ADME, organism-based, Cavia porcellus.
Data set [22] in a line: Peak blood concentration in guinea pig at a dose of 3 mg/kg upon subcutaneous administration. The following applies: sc. On the set-up: dose 3 mg/kg, route subcutaneous. It counts as ADME, organism-based, Cavia porcellus.
A short description of data set [23]: Volume of distribution in guinea pig at a dose of 1 mg/kg upon intravenous administration. It counts as ADME, organism-based, Cavia porcellus. On the set-up: dose 1 mg/kg, route intravenous. The following applies: in vivo, read-out: Vdss.
Data set [24] is described as follows: Half life in guinea pig at a dose of 1 mg/kg upon intravenous administration. It counts as ADME, organism-based, Cavia porcellus. On the set-up: dose 1 mg/kg, route intravenous. Particulars: in vivo.
Data set [25] in a line: Bioavailability in guinea pig at a dose of 3 mg/kg upon subcutaneous administration. The format is ADME, organism-based, Cavia porcellus. The following applies: in vivo, sc.
A short description of data set [26]: Peak blood concentration in guinea pig at a dose of 3 mg/kg upon oral administration. The format is ADME, organism-based, Cavia porcellus. Further details: dose 3 mg/kg, route oral.

Chain of D(3) dopamine receptor (P35462 whole entry): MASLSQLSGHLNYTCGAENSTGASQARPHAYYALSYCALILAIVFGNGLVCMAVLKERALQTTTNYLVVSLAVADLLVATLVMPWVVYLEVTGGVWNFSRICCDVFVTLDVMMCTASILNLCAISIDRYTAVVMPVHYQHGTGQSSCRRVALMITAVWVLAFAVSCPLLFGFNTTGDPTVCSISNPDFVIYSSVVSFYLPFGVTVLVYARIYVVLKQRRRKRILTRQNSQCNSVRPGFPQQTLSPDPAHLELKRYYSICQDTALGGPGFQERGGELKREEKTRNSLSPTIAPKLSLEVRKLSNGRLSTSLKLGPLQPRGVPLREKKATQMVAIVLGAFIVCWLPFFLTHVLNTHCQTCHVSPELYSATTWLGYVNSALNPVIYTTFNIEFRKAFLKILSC
Chain of 5-hydroxytryptamine receptor 1B (P28222 whole entry): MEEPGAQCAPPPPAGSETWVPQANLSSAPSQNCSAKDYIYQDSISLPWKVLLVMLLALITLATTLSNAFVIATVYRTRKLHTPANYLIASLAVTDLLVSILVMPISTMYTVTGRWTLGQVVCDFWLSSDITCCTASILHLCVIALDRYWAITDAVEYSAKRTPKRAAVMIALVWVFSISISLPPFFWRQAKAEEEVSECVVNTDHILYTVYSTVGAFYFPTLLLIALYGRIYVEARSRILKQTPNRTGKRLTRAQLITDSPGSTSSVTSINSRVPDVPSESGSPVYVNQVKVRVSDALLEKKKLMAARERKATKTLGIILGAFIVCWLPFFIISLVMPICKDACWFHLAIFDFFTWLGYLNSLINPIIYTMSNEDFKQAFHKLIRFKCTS
Chain of 5-hydroxytryptamine receptor 1D (P28221 whole entry): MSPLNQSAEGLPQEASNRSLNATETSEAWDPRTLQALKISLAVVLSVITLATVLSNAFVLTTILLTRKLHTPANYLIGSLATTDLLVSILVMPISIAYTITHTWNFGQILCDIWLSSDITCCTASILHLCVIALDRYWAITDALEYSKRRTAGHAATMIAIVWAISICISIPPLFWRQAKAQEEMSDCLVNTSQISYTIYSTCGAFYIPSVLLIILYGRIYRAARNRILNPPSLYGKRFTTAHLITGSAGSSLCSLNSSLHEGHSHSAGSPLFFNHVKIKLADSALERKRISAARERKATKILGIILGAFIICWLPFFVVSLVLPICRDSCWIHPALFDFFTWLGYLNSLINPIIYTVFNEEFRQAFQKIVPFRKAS
Chain of 5-hydroxytryptamine receptor 6 (P50406 whole entry): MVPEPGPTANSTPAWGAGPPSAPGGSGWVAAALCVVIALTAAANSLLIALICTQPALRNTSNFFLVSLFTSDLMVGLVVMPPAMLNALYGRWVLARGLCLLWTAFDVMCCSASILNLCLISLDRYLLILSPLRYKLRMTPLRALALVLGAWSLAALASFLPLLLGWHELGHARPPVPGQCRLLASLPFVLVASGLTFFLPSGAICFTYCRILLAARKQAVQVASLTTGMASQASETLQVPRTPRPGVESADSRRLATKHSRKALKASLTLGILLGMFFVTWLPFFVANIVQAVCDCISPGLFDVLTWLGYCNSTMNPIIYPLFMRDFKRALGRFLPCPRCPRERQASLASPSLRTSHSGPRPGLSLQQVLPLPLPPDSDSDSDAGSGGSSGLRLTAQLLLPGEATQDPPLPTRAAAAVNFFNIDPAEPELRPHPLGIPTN
Chain of Sodium-dependent serotonin transporter (P31645 whole entry): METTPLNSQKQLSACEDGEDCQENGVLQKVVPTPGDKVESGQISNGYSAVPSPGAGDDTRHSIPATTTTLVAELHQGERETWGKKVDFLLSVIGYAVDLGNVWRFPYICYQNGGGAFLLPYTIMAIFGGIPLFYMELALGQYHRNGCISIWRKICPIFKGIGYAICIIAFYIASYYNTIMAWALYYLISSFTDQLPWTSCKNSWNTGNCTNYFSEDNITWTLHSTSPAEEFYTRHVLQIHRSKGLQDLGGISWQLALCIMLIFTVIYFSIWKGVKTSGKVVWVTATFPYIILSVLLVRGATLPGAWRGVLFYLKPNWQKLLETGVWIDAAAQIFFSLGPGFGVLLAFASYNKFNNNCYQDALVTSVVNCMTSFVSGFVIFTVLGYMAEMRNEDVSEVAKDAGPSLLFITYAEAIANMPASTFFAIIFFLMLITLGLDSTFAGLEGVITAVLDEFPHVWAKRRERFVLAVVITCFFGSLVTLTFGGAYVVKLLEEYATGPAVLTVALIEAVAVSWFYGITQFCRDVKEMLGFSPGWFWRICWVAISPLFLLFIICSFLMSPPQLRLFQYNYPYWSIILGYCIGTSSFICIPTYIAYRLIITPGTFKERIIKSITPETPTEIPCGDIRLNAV

In general, pKb refers to −log10 of the Kb, conventionally taken in molar units. Consider `CN(C)CCN(Cc1ccc(-c2ccc(CNCCc3ccccc3)cc2)cc1)C(=O)CCC1CCCC1` [listing 1 of 2 here], for which the pKb in data set [1] is 8.
The Ki is a measure of affinity in units of concentration, obtained from inhibition or displacement. A higher Ki goes with weaker binding. Regarding `O=C(/C=C/c1ccccc1)N(Cc1ccc(-c2ccc(CNCCc3ccccc3)cc2)cc1)Cc1cccnc1`, the inhibitory constant (Ki) is > 1 µM in data set [2]; 1580 nM in data set [3]; 2000 nM in [4]; 50.1 nM in data set [5]; 1000 nM in data set [6]; 316 nM in data set [7]. Also, the inhibition constant Ki in data set [8] was > 10 µM; in [9], > 2 µM; in data set [10], 1260 nM; in data set [11], 1000 nM; in [12], 1260 nM; in data set [13], 794 nM. The Ki in data set [14] was 1580 nM; in data set [15], 631 nM; in data set [16], 1260 nM.
Turning to `CN(C)CCN(Cc1ccc(-c2ccc(CNCCc3ccccc3)cc2)cc1)C(=O)/C=C/c1ccccc1`, the Ki is > 10 µM in data set [2]; 1260 nM in data set [3]; 1260 nM in data set [4]; 25.1 nM in data set [5]; 794 nM in data set [6]; 200 nM in data set [7]. Further, the inhibitory constant (Ki) in data set [8] is > 10 µM; in data set [9], > 7.94 µM; in data set [10], 794 nM; in [11] it was 631 nM; in data set [12], 158 nM; in [13], 398 nM. Also, the Ki in data set [14] was 1000 nM; in [15], 631 nM; in data set [16], 1000 nM.
With `CN(C)CCN(Cc1ccc(-c2ccc(CNCCc3ccccc3)cc2)cc1)C(=O)CCC1CCCC1` [listing 2 of 2 here], the Ki is > 10 µM in data set [2]; 794 nM in data set [3]; 1000 nM in data set [4]; 6.31 nM in [5]; 501 nM in [6]; 316 nM in data set [7]. The Ki in data set [8] was > 10 µM; in [9], 3.98 µM; in data set [10] it was 1260 nM; in data set [11], 398 nM; in data set [12], 398 nM; in data set [13], 794 nM. Besides, the results for the Ki in data set [14], in data set [15] and in data set [16] were 631 nM, 316 nM and 3980 nM, respectively.
As usually defined, the clearance is the rate of elimination divided by the concentration. A high value points to a high capacity for elimination. Usually half-life stands for the time needed for the level to fall by half in the phase considered. Low values mean rapid decline, high ones slow decline. Usually bioavailability stands for dose-corrected exposure relative to a reference, in per cent. A higher bioavailability goes with much systemic uptake. A word on the Cmax: it is the highest concentration seen after dosing. Regarding `CN(C)CCN(Cc1ccc(-c2ccc(CNCCc3ccccc3)cc2)cc1)C(=O)CCC1CCCC1.Cl.Cl`, the clearance in data set [17] amounted to 22 mL/min/kg. For the same compound, the Ki in [18] was 25.1 nM. Besides, the half-life is 234 min in data set [19], 132 min in [20] and 210 min in [24]. Moreover, the bioavailability in data set [21] is 4%; in data set [25] it was 63%. The Cmax in [22] stood at 388 ng/mL; in data set [26], 20 ng/mL. Besides, the Vd in [23] is 6.1 L/kg.
